Where “and” joins values, the source holds several entries; their conditions need not be identical. Equal values may be shown once. Entries after “also recorded” stand apart in the source; their conditions may differ.
What was measured:
[1] = tested on: C57B/6 mice with CCL4 + GalN induced ACLF; experiment: CCL4 + galactosamine (GalN) non-inflammatory ACLF mouse model; conditions: for RIPK3 expression (necroptotic cell death) / liver cell death (TUNEL): value (range)
Procedure: C57B/6 mice were gavaged for 6-weeks with carbon tetrachloride (CC14) 0.5 ml/ml to induce chronic liver injury (n=8 per group). Thereafter, galactosamine (GalN) (1000 mg/kg) was administered to induce a non-inflammatory liver injury and treatment with the RIPK1 inhibitor, RIPA56 3 mg/kg i.p. was initiated every 12-hrs.

[2] = tested on: C57B/6 mice with CCL4 + LPS induced ACLF; experiment: CCL4 + LPS ACLF mouse model; format: in vivo; conditions: for proliferating (Cyclin A positive) hepatocytes: 5 days treatment; for CyclinA2/TUNEL ratio: CCl4-LPS 24-hr treatment model
Procedure: Thereafter injection of LPS (Klebsiella, 4 mg/kg, i.p.) served as a second hit to induce organ injury. […] CCL4- Carbontetrachloride; G-CSF - granulocyte colony stimulating factor.
Thereafter injection of LPS (Klebsiella, 4 mg/kg, i.p.) served as a second hit to induce organ injury.
Thereafter injection of LPS (Klebsiella, 4 mg/kg, i.p.) served as a second hit to induce organ injury. […] It majorly regulated the transition from G2 to M phase. […] E) BCL2 is the effector molecule of the STAT3 pathway which carries anti-apoptotic and antibacterial properties. […] Image J was used for image quantification and group comparison was performed by one-way ANOVA and post-hoc Tukey’s multiple comparison mRNA data is delineated as ddCt value. Western blots were performed with protein lysates pooled from all animals per group. G) Liver protein expression of markers of inflammation, cell death and regeneration/senescence (CC14-LPS 24 h treatment model). Liver lysates from 4 randomly selected animals per group were pooled and applied onto one profiler membrane.
Second, due to the conflicting data concerning the therapeutic benefit of G-CSF the present inventors performed pre-clinical studies in well-established rodent models of ACLF in order to clarify the effect of stem cell mobilisation. C57BL/6 Mice were gavaged with carbon tetrachloride (CCL4) for 6 weeks to induce liver fibrosis and subsequently injected with lipopolysaccharide (LPS) to induce tissue injury and organ failure. One hour after LPS injection mice were treated with G-CSF subcutaneously 250 µg/kg once daily for 5 consecutive days (FIG. 1A).
The inventors then tested whether TLR4 inhibition (e.g. TAK-242) rescues from G-CSF driven injury and inflammation in preclinical models of ACLF.

THP1 monocytes = experiment: THP1 response to LPS after G-CSF stimulation, monocytes; format: cell-based; conditions: for IL-6 mRNA expression / IL-1b expression: LPS 10 ng/mL ± G-CSF 100 ng/mL, TAK-242 200 nM, compared to unstimulated cells; for IL-6 mRNA expression: 3-hr after LPS
Procedure: (§1) Densitometry was measured by using ImageJ and values are depicted as mean pixel density. After sample pooling no statistical comparison could be applied. H) Liver aSMA expression (CC14-LPS 24 hours treatment model) Liver sections were stained for aSMA (n=4 per group) as a marker of stellate cell activation. LPS increased the aSMA positive area from 1.4% ± 0.6 in CC14 animals to 8.6% ± 1.9 (p<0.001) and 9% ± 4.1 (p<0.001) when combined with G-CSF. […] Image J was used for image quantification and group comparison was performed by one-way ANOVA and post-hoc Tukey’s multiple comparison. I) THP1 response to LPS after G-CSF stimulation. THP1 were PMA activated into a macrophage like phenotype and stimulated with LPS (10 ng/mL) ± G-CSF (100 ng/mL) (2 batches in 2 replicates). Treatment was performed with TAK-242 200 nM in two of the groups. RNA extraction to measure cytokine response was performed 3-hr after LPS incubation. LPS induced an upregulation of IL-6 mRNA expression 60.2-fold in THP1 monocytes and 6.2-fold in macrophages which was enhanced by pre-incubation with G-CSF (monocytes 71-fold, macrophages 6.7-fold). TAK-242 reduced IL-6 mRNA expression compared to unstimulated cells to 5.1-fold in monocytes and 2.8-fold in macrophages resembling biological significance. […] G-CSF exaggerated the IL-1b expression 2.5-fold compared to unstimulated cells whereas it remained unchanged in macrophages (1.1-fold compared to unstimulated cells). TAK-242 decreased the IL-1b response in both cell lines (monocytes 1.3-fold and macrophages 0.7-fold compared to unstimulated cells). J) Proliferative effect of G-CSF after CC14. […] G-CSF (250 µg/kg, s.c.) was injected without previous LPS administration once daily for 5-days. Results were compared to groups administered LPS. […] Ki67 expression as a marker of hepatocyte division increased from 0.6% ± 0.2 after CC14 + LPS + G-CSF to 4.1% ± 2.9 (p<0.001) after CC14 + G-CSF. Image J was used for image quantification and group comparison was performed by one-way ANOVA and post-hoc Tukey’s multiple comparison.
(§2) Monocytes and macrophages are major source of cytokine release in liver disease. The inventors therefore tested in vitro, to what extent LPS and G-CSF modulate the cytokine response in PMA activated and native THP1 cells. […] These in vitro findings are in keeping with hepatic IL6 levels, which increased 2.8-fold in G-CSF-treated animals (FIG. 4D). […] The data help to explain the reduction in markers of organ injury in the ACLF animals treated with G-CSF/TAK-242.

[3] = tested on: PMA-activated THP1 macrophage-like cells; experiment: THP1 response to LPS after G-CSF stimulation, PMA activated macrophages; format: cell-based; conditions: for IL-6 mRNA expression / IL-1b expression: LPS 10 ng/mL ± G-CSF 100 ng/mL, TAK-242 200 nM, compared to unstimulated cells; for IL-6 mRNA expression: 3-hr after LPS
Procedure: as §1, §2

[4] = tested on: rat ACLF model (BDL + LPS); experiment: BDL + LPS rat ACLF model; conditions: LPS after BDL, TAK-242 10 mg/kg i.p. before and after LPS
[5] = tested on: C57B/6 mice with CCL4 induced chronic liver injury; experiment: G-CSF after CCL4 without LPS (chronic liver injury mice); format: in vivo; conditions: CCl4 + G-CSF 250 µg/kg s.c. once daily for 5-days, no LPS
Procedure: Densitometry was measured by using ImageJ and values are depicted as mean pixel density. After sample pooling no statistical comparison could be applied. H) Liver aSMA expression (CC14-LPS 24 hours treatment model) Liver sections were stained for aSMA (n=4 per group) as a marker of stellate cell activation. LPS increased the aSMA positive area from 1.4% ± 0.6 in CC14 animals to 8.6% ± 1.9 (p<0.001) and 9% ± 4.1 (p<0.001) when combined with G-CSF. […] Image J was used for image quantification and group comparison was performed by one-way ANOVA and post-hoc Tukey’s multiple comparison. I) THP1 response to LPS after G-CSF stimulation. THP1 were PMA activated into a macrophage like phenotype and stimulated with LPS (10 ng/mL) ± G-CSF (100 ng/mL) (2 batches in 2 replicates). Treatment was performed with TAK-242 200 nM in two of the groups. RNA extraction to measure cytokine response was performed 3-hr after LPS incubation. LPS induced an upregulation of IL-6 mRNA expression 60.2-fold in THP1 monocytes and 6.2-fold in macrophages which was enhanced by pre-incubation with G-CSF (monocytes 71-fold, macrophages 6.7-fold). […] Image J was used for image quantification and group comparison was performed by one-way ANOVA and post-hoc Tukey’s multiple comparison.

patients with ACLF [6] = experiment: GRAFT multicentre randomised controlled trial of G-CSF in ACLF (NCT02669680); format: in vivo, human
Excerpt: The pathobiology of ACLF is characterised by immunopathological features comprising two opposing mechanisms as the main drivers of organ failure which are active concurrently. The first is systemic and hepatic inflammation triggered by pathogen-associated molecular patterns (PAMPs) and cell death molecules (damage associated molecular patterns (DAMPs)) mediated through the TLR4 receptor pathway. PAMPs derive through translocation of gut-derived bacteria and bacterial products (such as lipopolysaccharide-LPS) to the liver via portal the portal vein, promoting pro-inflammatory responses through the toll-like 4 (TLR4) -dependent canonical inflammasome on immune cells, as well as the TLR4-independent non-canonical inflammasome in hepatocytes (3). […] The second is a prolonged organ injury, immune cell paralysis and failure of regeneration facilitating prolonged organ dysfunction and secondary infections culminating into a vicious cycle leading to multi-organ failure and death. Stem cells and other regulatory immune cells are known to modulate immune activation thereby modulating inflammatory reactions and supporting tissue repair capacities (5). Granulocyte colony stimulating factor (G-CSF) mobilizes stem and immune cells and is perceived to carry immunomodulatory and pro-regenerative properties. […]

patients with ACLF [7] = conditions: from 30% without G-CSF; cited from earlier work
[8] = RIPA56 3 mg/kg i.p. every 12-hrs, n=3
[9] = RIPA56 3 mg/kg i.p. every 12-hrs, p<0.001 compared to CCl4 + GalN, 3 mg/kg
[10] = LPS +/- G-CSF, TAK-242 10 mg/kg i.p. twice for 24 h, 10 mg/kg

CCC(C)(C)C(=O)N(O)Cc1ccccc1 [RIPA56]
Cyclin A2 (hepatocyte proliferation) [1, 8]: 0.03% ± 0.1
Ki67 (hepatocyte proliferation) [1, 8]: 0.2% ± 0.2
GalN-induced cell death (TUNEL) [1, 9]: effectively prevented; also recorded: reduced
RIPK3 expression [1, 9]: effectively prevented; also recorded: reduced

CCOC(=O)C1=CCCC[C@H]1S(=O)(=O)Nc1ccc(F)cc1Cl [TAK-242, Ethyl (6R)-6-[N-(2-chloro-4-fluorophenyl)sulfamoyl]cyclohex-1-ene-1-carboxylate]
proliferating (Cyclin A positive) hepatocytes [2]: not proliferating
proliferating (Cyclin A positive) hepatocytes ([2]; listed as TAK242): did not enhance
CyclinA2/TUNEL ratio [2]: 1.4
ALT levels [2, 10]: reduction in plasma ALT levels; also recorded: prevented
liver cell death (TUNEL) [2, 10]: reduction in liver cell death; also recorded: prevented
CDKN2A (p16) mRNA level ([2]; after LPS injection): decreased in a stepwise manner
stellate cells activation (aSMA expression) ([2]; after LPS injection): significantly abrogated
G-CSF-related death ([2]; mouse, in vivo): protected from G-CSF-related death
hepatic cytokine expression (mRNA) (IL6, TNFa) ([2]; mouse, in vivo): reduced
liver protein expression of vascular regeneration and regeneration markers (angiopoietin 2, proliferin, PDGF, IL-22, Flt3-ligand, IGFBP-1) ([2]; proteome profiler, pooled liver lysates, 24-hours): reduced
IL-6 mRNA expression (THP1 monocytes): 5.1 fold
IL-1b expression (THP1 monocytes): 1.3 fold
cytokine response to LPS alone or in combination with G-CSF (THP1 monocytes; in the presence of TAK-242): completely prevented
IL-6 mRNA expression [3]: 2.8 fold
IL-1b expression [3]: 0.7 fold
cytokine response to LPS alone or in combination with G-CSF ([3]; in the presence of TAK-242): completely prevented
ALT levels ([4]; 10 mg/kg): improving plasma ALT levels; also recorded: significantly reduced
liver cell death (TUNEL) ([4]; recAP pre-treatment 1000 U/kg i.p. over 4 days): effective in reducing cell death in the liver; also recorded: significantly reduced
Cyclin A2 (proliferating hepatocytes) ([1]; 48 hours treatment): 1.9% ± 1.6
Ki67 (proliferating hepatocytes) ([1]; 48 hours treatment): 3% ± 2.1
p21 (hepatocytes in cell cycle arrest) ([1]; 48 hours treatment): 7.1% ± 4.5
RIPK3 expression (necroptotic cell death) ([1]; 48 hours treatment): 1.7% (range 0.9-2.1)
liver cell death (TUNEL) ([1]; 48 hours treatment): 1.4% (range 0.4-3.3)
CyclinA2/TUNEL ratio ([1]; GalN 48-hr treatment): 0.9
degree of proliferating (Cyclin A2, Ki67) and senescent (p21) hepatocytes ([1]; mouse, in vivo): did not alter; also recorded: maintained

B1: G-CSF: Granulocyte colony stimulating factor, a glycoprotein that mobilizes stem and immune cells; recombinant murine G-CSF used in mice (protein, UniProt P09920 31-208, looked up)
Granulocyte …: VPLVTVSALPPSLPLPRSFLLKSLEQVRKIQASGSVLLEQLCATYKLCHPEELVLLGHSLGIPKASLSGCSSQALQQTQCLSQLHSGLCLYQGLLQALSGISPALAPTLDLLQLDVANFATTIWQQMENLGVAPTVQPTQSAMPAFTSAFQRRAGGVLAISYLQGFLETARLALHHLA
liver fibrosis (Sirius Red) ([2]; 5-days G-CSF treatment): higher degree of liver fibrosis; also recorded: enhanced liver fibrosis; also recorded: pro-fibrotic effect
hepatic macrophage infiltration (F4/80+) ([2]; 5 days G-CSF treatment): persisted; also recorded: aggravated liver macrophage infiltration; also recorded: maintained macrophage infiltration
proliferating (Cyclin A positive) hepatocytes [2]: increased the number of proliferating hepatocytes significantly
Cyclin A2 expressing hepatocytes ([2]; CCl4 + LPS + G-CSF, 5 days): 1.4% ± 0.7
Ki67 expression (hepatocyte division) ([2]; CCl4 + LPS + G-CSF, 5 days): 0.6% ± 0.2
CyclinA2/TUNEL ratio [2]: 0.04
mortality ([2]; G-CSF 250 µg/kg s.c. once daily, within 48 hours after LPS injection): 50% and 66%
hepatic IL6 levels, increase ([2]; G-CSF-treated animals (FIG. 4D)): 2.8 fold
survival ([2]; after 48 hours, G-CSF 250 µg/kg s.c. +/- TAK-242 10 mg/kg i.p.): 50%
number of senescent hepatocytes ([2]; after 5 days of treatment): plummet significantly
TLR4+ liver infiltrating CD45+ cells ([2]; after G-CSF treatment (FIG. 2C)): increased
CDKN2A (p16) mRNA level ([2]; after LPS injection): decreased in a stepwise manner
aSMA positive area (stellate cell activation) ([2]; liver sections, CCl4-LPS 24 hours treatment model, n=4 per group): 9% ± 4.1
hepatic cytokine expression (mRNA) (IL6, TNFa) ([2]; mouse, in vivo): increased
number of p53 positive (senescent) hepatocytes ([2]; mouse, in vivo): reduced numerically
injury markers (such as Lipocalin/NGAL and IL-13), protein profiler ([2]; pooled liver lysates, 24 h treatment model): increased
Cyclin A2 expressing hepatocytes [5]: 2.1% ± 1.3
Ki67 expression (hepatocyte division) [5]: 4.1% ± 2.9
IL-6 mRNA expression (THP1 monocytes): 71 fold
IL-1b expression (THP1 monocytes): 2.5 fold
IL-6 mRNA expression [3]: 6.7 fold
IL-1b expression [3]: 1.1 fold
survival rate / mortality of patients with ACLF (patients with ACLF [6]; 163 patients, G-CSF vs standard of care, interim analysis): did not improve the survival rate; also recorded: no effect on mortality
mortality in subgroups (alcoholic hepatitis, ACLF according to the APASL criteria) (patients with ACLF [6]; in vivo): tend to increased mortality; also recorded: may be deleterious
survival after 60 days (patients with ACLF [7]): 70%
RIPK3 expression (necroptotic cell death) ([1]; 48 hours treatment): 1.9% (range 0.9-2.5)
liver cell death (TUNEL) ([1]; 48 hours treatment): 1.2% (range 0.4-1.9)
cell death and subsequent regenerative response ([1]; mouse, in vivo): reduced cell death and the subsequent regenerative response
degree of proliferating (Cyclin A2, Ki67) and senescent (p21) hepatocytes ([1]; mouse, in vivo): reduced

From patent US20230136299A1, “TREATMENT OF LIVER FAILURE” (HEPYX LIMITED, priority 2020, published 2023)
